Reference: PubChem BioAssay (NCI)
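A five-concentration, 48-hour dose response in 96-well plates underlies each endpoint, interpolated linearly between surrounding concentrations. The concentration for 50% growth inhibition is given as GI50. At the TGI there is no net growth.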

Legend:
Test in all cases: DTP human tumour cell line panel, 48 h
[1] = test system: KM12 colon
[2] = test system: NCI-H226 lung
[3] = test system: NCI-H23 lung
[4] = test system: DU-145 prostate
[5] = test system: HCT-116 colon
[6] = test system: SW-620 colon
[7] = test system: SN12C renal
[8] = test system: HCC-2998 colon
[9] = test system: OVCAR-5 ovarian
[10] = test system: SNB-75 CNS

Compound: Nc1c(O)c(S(=O)(=O)O)c(O)c2c1C(=O)c1ccccc1C2=O
- GI50 [1]: 2.94 µM
- TGI [1]: 12.8 µM
- GI50 [2]: 4.12 µM
- TGI [2]: > 100 µM
- GI50 [3]: 2.82 µM
- TGI [3]: 9.88 µM
- GI50 [4]: 3.8 µM
- TGI [4]: > 100 µM
- GI50 [5]: 2.78 µM
- TGI [5]: 10.9 µM
- GI50 [6]: 3.24 µM
- TGI [6]: > 100 µM
- GI50 [7]: 3.29 µM
- TGI [7]: 11.6 µM
- GI50 [8]: 2.84 µM
- TGI [8]: 32.8 µM
- GI50 [9]: 3.22 µM
- TGI [9]: 32.5 µM

Compound: COC(=O)C(=O)C(C#N)c1ccc(Cl)c(Cl)c1 (configuration not stated)
- TGI [10]: > 100 µM
- TGI [1]: > 100 µM
- TGI [2]: > 100 µM
- TGI [3]: > 100 µM
- TGI [5]: > 100 µM
- TGI [6]: > 100 µM
- TGI [7]: > 100 µM

Compound: O=C1CCC2CCOc3ccc(O)c1c32 (configuration not stated)
- TGI [10]: > 100 µM
- TGI [1]: > 100 µM
- TGI [2]: > 100 µM
- TGI [3]: > 100 µM
- TGI [5]: > 100 µM
- TGI [7]: > 100 µM
- TGI [8]: > 100 µM
- TGI [9]: > 100 µM

Compound: Cc1ccc(-n2c(-c3ccc(Cl)cc3)cs/c2=N\NC(=O)COc2n[nH]c(=O)c3ccccc23)cc1
- GI50 [10]: 20.7 µM
- TGI [10]: 65.9 µM
- GI50 [1]: > 100 µM
- TGI [1]: > 100 µM
- GI50 [2]: 39.6 µM
- TGI [2]: > 100 µM
- GI50 [3]: 34.1 µM
- TGI [3]: > 100 µM
- GI50 [4]: > 100 µM
- TGI [4]: > 100 µM
- GI50 [6]: > 100 µM
- TGI [6]: > 100 µM
- GI50 [7]: 78.1 µM
- TGI [7]: > 100 µM
- GI50 [9]: > 100 µM
- TGI [9]: > 100 µM

Compound: CC(C)(C)C(=O)OCC(COC(=O)C(C)(C)C)[N+](=O)[O-]
- TGI [10]: > 100 µM
- TGI [1]: > 100 µM
- TGI [2]: > 100 µM
- TGI [3]: > 100 µM
- TGI [5]: > 100 µM
- TGI [6]: > 100 µM
- TGI [7]: > 100 µM
- TGI [8]: > 100 µM
- TGI [9]: > 100 µM

Compound: O=C1c2ccccc2C2(O)Oc3cccc(O)c3C12O (configuration not stated)
- TGI [10]: > 100 µM
- TGI [1]: > 100 µM
- TGI [2]: > 100 µM
- TGI [3]: > 100 µM
- TGI [5]: > 100 µM
- TGI [6]: > 100 µM
- TGI [7]: > 100 µM
- TGI [8]: > 100 µM
- TGI [9]: > 100 µM

Compound: CCCCCCCCCC(=O)N[C@H]1CCc2cc(OC)c(OC)c(OC)c2-c2ccc(SC)c(=O)cc21
- TGI [1]: 0.0436 µM
- GI50 [2]: 0.619 µM
- TGI [5]: 0.0586 µM
- TGI [6]: > 100 µM
- TGI [7]: 19.6 µM
- TGI [8]: 0.0563 µM
- TGI [9]: > 100 µM

Compound: O=[N+]([O-])c1ccc2c(c1)S(=O)c1ccccc1-2 (configuration not stated)
- TGI [10]: > 100 µM
- TGI [1]: > 100 µM
- TGI [2]: > 100 µM
- TGI [3]: > 100 µM
- TGI [4]: > 100 µM
- TGI [5]: > 100 µM
- TGI [6]: > 100 µM
- TGI [7]: > 100 µM
- TGI [9]: > 100 µM

Compound: O=C1CC(c2c[nH]c3ccccc23)C(=O)N1c1ccccc1 (configuration not stated)
- TGI [10]: > 100 µM
- TGI [1]: > 100 µM
- TGI [2]: > 100 µM
- TGI [3]: > 100 µM
- TGI [5]: > 100 µM
- TGI [6]: > 100 µM
- TGI [8]: > 100 µM
- TGI [9]: > 100 µM

Compound: CS(=O)(=O)CS(=O)CS(=O)CS(=O)CC(NC(=O)CCC(N)C(=O)O)C(=O)O (configuration not stated)
- TGI [10]: > 100 µM
- TGI [1]: > 100 µM
- TGI [3]: > 100 µM
- TGI [4]: > 100 µM
- TGI [5]: > 100 µM
- TGI [6]: > 100 µM
- TGI [7]: > 100 µM
- TGI [8]: > 100 µM
- TGI [9]: > 100 µM

Compound: COc1ccc(CCC2NCCc3cc(OC)c(OC)cc32)cc1 (configuration not stated)
- TGI [10]: > 100 µM
- TGI [1]: > 100 µM
- TGI [3]: > 100 µM
- TGI [5]: > 100 µM
- TGI [6]: > 100 µM
- TGI [7]: > 100 µM
- TGI [8]: > 100 µM
- TGI [9]: > 100 µM

Compound: COc1ccc(Nc2c[nH]c(=O)[nH]c2=O)cc1
- TGI [10]: > 100 µM
- TGI [1]: > 100 µM
- TGI [2]: > 100 µM
- TGI [3]: > 100 µM
- TGI [4]: > 100 µM
- TGI [5]: > 100 µM
- TGI [6]: > 100 µM
- TGI [7]: > 100 µM
- TGI [8]: > 100 µM
